Assay results published in US9839642B2, “Beta-tetrazolyl-propionic acids as metallo-beta-lactamase inhibitors” (priority 2014, dated 2017).
Like-named read-outs stand apart in the source and are kept apart here.

Legend:
IMP-1 = IMP-1 (Serratia marcescens, UniProt P52699); test: Enzyme activity: determination of IC50, fluorescence assay with CCF2-FA substrate; type: biochemical; settings: CCF2-FA 1.25 μM, 2 hours at 25° C., read-out: IMP1 IC50
Protocol: (§1) Enzyme Activity: Determination of IC50
(§2) The Class B enzyme activities were measured in the presence of a compound of the EXAMPLES as a test inhibitor in a fluorescence assay against a commercially available substrate consisting of a cephalosporin core linking 7-hydroxycoumarin to fluorescein (CCF2-FA; Life Technologies, Grand Island, N.Y.). The enzyme (NDM-1, IMP-1 or VIM-1) and the substrate were diluted in 100 mM KH2PO4 buffer (pH 7) containing 0.005% Tween-20 and 10 μM ZnSO4. In the assay, the final concentration of enzyme was 1 pM, 2 pM and 30 pM for NDM-1, IMP-1 and VIM-1, respectively, and the final concentration of CCF2-FA was 1.25 μM. The test inhibitor was dissolved in DMSO and diluted 1:50 in the assay, resulting in a final concentration range of 20 μM to 0.00063 μM. In a 384-well microplate, the test inhibitor was incubated with the metallo-β-lactamase enzyme and the substrate for 2 hours at 25° C. Fluorescence at 460 nm following excitation at 405 nm was measured. The IC50 value was determined from semi-logarithmic plots of enzyme inhibition versus inhibitor concentration, with a curve generated using a 4-parameter fit.

NDM-1 = NDM-1 (Klebsiella pneumoniae, UniProt C7C422); test: as above; type: biochemical; settings: CCF2-FA 1.25 μM, 2 hours at 25° C., read-out: NDM1 IC50
Protocol: as §1, §2

VIM-1 = VIM-1 (Pseudomonas aeruginosa, UniProt A0A0F7KYQ8); test: as above; type: biochemical; settings: CCF2-FA 1.25 μM, 2 hours at 25° C., read-out: VIM1 IC50
Protocol: as §1, §2

[1] = tested on: Escherichia coli expressing NDM-1 (CLB30016); test: Antibiotic potentiation activity: synergistic concentration (MITC95) with imipenem, growth by OD600; type: cell-based
Protocol: (§3) Antibiotic Potentiation Activity: Determination of Synergistic Concentration
(§4) The bacterial strains tested included the clinical strains Escherichia coli expressing NDM-1 (CLB30005, CLB30016), Serratia marcescens expressing IMP-1 (CL5741), and Klebsiella pneumoniae expressing VIM-1 (IHMA599644). Inhibitor activity was measured in the presence and absence of imipenem or ceftazidime in a 384-well microplate.
(§5) The clinical strains CLB30016, CL5741, and IHMA599644 were grown on trypticase soy agar containing 5% sheep's blood. The clinical strain CLB30005 was grown on Mueller Hinton broth agar containing 8 μg/ml imipenem. The bacteria on agar plates were incubated overnight at 35° C. with ambient humidity (achieved from an open pan of water inside the incubator). The following day, individual colonies from each clinical strain were picked and resuspended in 5 ml saline to attain an OD600 of 0.14, 0.11, 0.15 and 0.13, for CLB30005, CLB30016, CL5741 and IHMA599644, respectively. These were further diluted 1:100 into 1.1×CAMHB and used to inoculate the test wells as described below.
(§6) Imipenem in 10 mM 3-(N-morpholino)propanesulfonic acid (MOPS, pH 7) was stored in single use aliquots at −80° C. Test inhibitors were dissolved in DMSO and diluted 1:50 in the assay, resulting in a final concentration range of 200 μM to 0.195 μM. On the day of the assay, 4 μl of antibiotic was added to 45 μl of bacteria followed by 1 μl of test compound and mixed by pipetting and with an orbital shaker. The concentration of antibiotic used in the assay was 1 μg/ml or 4 μg/ml. Microplates were covered and incubated at 35° C. for 22 hours to 24 hours. At the end of the incubation, absorbance was determined using a spectrophotometer. The synergistic concentration of MBLI was determined by identifying the lowest concentration of test compound in the presence of a given concentration of antibiotic that was required to inhibit 95% of the growth of the bacteria.
(§7) Representative compounds of the present invention display a synergistic effect. For example, representative compounds of EXAMPLES 1-456 were determined to restore susceptibility to imipenem at concentrations of 200 μM or less.

[2] = tested on: Klebsiella pneumoniae expressing VIM-1 (IHMA599644); test: as above; type: cell-based
Protocol: as §3, §4, §5, §6, §7

[3] = tested on: Serratia marcescens expressing IMP-1 (CL5741); test: as above; type: cell-based
Protocol: as §3, §4, §5, §6, §7

[4] = E. coli CLB30016 (NDM-1), 95% inhibition of growth
[5] = K. pneumoniae IHMA599644 (VIM-1), 95% inhibition of growth
[6] = S. marcescens CL5741 (IMP-1), 95% inhibition of growth
[7] = 95% inhibition of bacterial growth, strain CLB30016
[8] = 95% inhibition of bacterial growth, strain IHMA599644
[9] = 95% inhibition of bacterial growth, strain CL5741

Sequence of IMP-1 (P52699 19-246, looked up, species assumed): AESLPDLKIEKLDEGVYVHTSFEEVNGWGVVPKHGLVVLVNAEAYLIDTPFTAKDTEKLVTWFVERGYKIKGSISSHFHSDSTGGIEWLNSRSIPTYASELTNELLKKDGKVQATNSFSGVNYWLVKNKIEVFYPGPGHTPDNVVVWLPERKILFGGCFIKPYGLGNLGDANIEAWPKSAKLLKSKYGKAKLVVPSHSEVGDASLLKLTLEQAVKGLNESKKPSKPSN
Sequence of NDM-1 (C7C422 29-270, looked up, species assumed): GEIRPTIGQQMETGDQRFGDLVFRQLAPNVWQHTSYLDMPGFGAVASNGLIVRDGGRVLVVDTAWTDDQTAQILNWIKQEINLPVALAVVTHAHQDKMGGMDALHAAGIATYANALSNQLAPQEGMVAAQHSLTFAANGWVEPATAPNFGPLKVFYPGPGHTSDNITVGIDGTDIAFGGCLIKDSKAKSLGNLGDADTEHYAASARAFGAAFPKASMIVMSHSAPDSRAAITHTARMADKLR

SMILES | IC50 (IMP-1; IMP-1 enzyme 2 pM) [nM] | IC50 (NDM-1; NDM-1 enzyme 1 pM) [nM] | IC50 (VIM-1; VIM-1 enzyme 30 pM) [nM] | NDM1 EC30016 MITC95 [1, 4] [µM] | VIM1 KP599644 MITC95 [2, 5] [µM] | IMP1 SM5741 MITC95 [3, 6] [µM] | IC50 (IMP-1; enzyme 2 pM) [nM] | IC50 (NDM-1; enzyme 1 pM) [nM] | IC50 (VIM-1; enzyme 30 pM) [nM] | NDM1 EC30016 MITC95 [1, 7] [µM] | VIM1 KP599644 MITC95 [2, 8] [µM] | IMP1 SM5741 MITC95 [3, 9] [µM]
CCC[C@H](C(=O)O)[C@H](Cc1cccc(N2CC[C@H](N)C2)c1)c1nn[nH]n1 [Example 369, (2S)-2-[(1S)-2-{3-[(3S)-3-aminopyrrolidin-1-yl]phenyl}-1-(2H-tetrazol-5-yl)ethyl]pentanoic acid] | 2300 | 150 | 3.2 | 12.5 | 12.5 | 50 | – | – | – | – | – | –
CCC[C@H](C(=O)O)[C@H](Cc1ccccc1Br)c1nnn[nH]1 [Example 26, (2S)-2-[(1S)-2-(2-bromophenyl)-1-(1H-tetrazol-5-yl)ethyl]pentanoic acid] | – | – | – | – | – | – | 570 | 9.9 | 2.4 | 3.1 | 18.8 | 12.5
CCC[C@H](C(=O)O)[C@H](Cc1cccc(-c2ccc(C(=O)NC)cc2)c1)c1nn[nH]n1 [Example 344, (2S)-2-[(1S)-2-[4′-(methylcarbamoyl)biphenyl-3-yl]-1-(2H-tetrazol-5-yl)ethyl]pentanoic acid] | 28 | 14 | 1.7 | 38 | 50 | 0.59 | – | – | – | – | – | –
CCC[C@H](C(=O)O)[C@H](Cc1ccccc1-c1ccc(C2CCNCC2)cc1)c1nn[nH]n1 [Example 395, (2S)-2-[(1S)-2-(4′-piperidin-4-ylbiphenyl-2-yl)-1-(2H-tetrazol-5-yl)ethyl]pentanoic acid] | 120 | 0.1 | 0.48 | 6.2 | 16 | 6.25 | – | – | – | – | – | –
CC(C)[C@H](C(=O)O)[C@H](Cc1ccc(N)nc1)c1nnn[nH]1 [Example 121, (2S,3S)-4-(6-aminopyridin-3-yl)-2-isopropyl-3-(1H-tetrazol-5-yl)butanoic acid] | – | – | – | – | – | – | 6000 | 120 | 35 | 0.21 | 5.5 | 37
CC(C)(C)[C@H](C(=O)O)[C@H](Cc1ccc(C2=CCNC2)nc1)c1nnn[nH]1.O=C(O)C(F)(F)F [Example 429, 3-(5-((2S,3R)-3-carboxy-4,4-dimethyl-2-(1H-tetrazol-5-yl)pentyl)pyridin-2-yl)-2,5-dihydro-1H-pyrrol-1-ium 2,2,2-trifluoroacetate] | 615 | 781 | 23.8 | 12.5 | 25 | 18.75 | – | – | – | – | – | –
CCC[C@H](C(=O)O)[C@H](Cc1ccc(C(=O)NC)cc1)c1nnn[nH]1 [Example 279, (2S)-2-[(1S)-2-[4-(methylcarbamoyl)phenyl]-1-(1H-tetrazol-5-yl)ethyl]pentanoic acid] | 9500 | 1000 | 100 | 150 | >200 | >200 | – | – | – | – | – | –
CC(C)C[C@H](C(=O)O)[C@H](Cc1ccc(NCCC(C)N)nc1)c1nnn[nH]1 (stereo partly drawn) [Example 318, (2S)-2-[(1S)-2-{6-[(3-aminobutyl)amino]pyridin-3-yl}-1-(1H-tetrazol-5-yl)ethyl]-4-methylpentanoic acid] | 2000 | 370 | 11 | 1.6 | 12.5 | 18.8 | – | – | – | – | – | –
CNc1ccc(C[C@H](c2nnn[nH]2)[C@@H](C(=O)O)C(C)C)cn1 [Example 152, (2S,3S)-2-isopropyl-4-(6-(methylamino)pyridin-3-yl)-3-(1H-tetrazol-5-yl)butanoic acid] | – | – | – | – | – | – | 5300 | 62 | 29 | 0.39 | 6.2 | 38
